Results from ChEMBL document CHEMBL1201862, “PubChem BioAssay data set” (2004).
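48-hour exposure; five concentrations; linearly interpolated endpoints. Here, GI50 denotes the concentration required for 50% inhibition of growth.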 Active and inactive are the calls of the source. Cut-off read from the data, not from the text of the source: active = GI50 up to about 1.1 µM and inactive = higher.

Key:
Assay in all cases: NCI-60 cell line screen, 48 h
[1] = test system: TK-10
[2] = test system: UACC-257
[3] = test system: NCI-H460
[4] = test system: OVCAR-3
[5] = test system: SF-268
[6] = test system: U-251
[7] = test system: BT-549
[8] = test system: DU-145
[9] = test system: SF-295
[10] = test system: ACHN
[11] = test system: HCT-116
[12] = test system: MCF7
[13] = test system: HL-60
[14] = test system: MOLT-4
[15] = test system: HCC 2998
[16] = test system: NCI-H522
[17] = test system: NCI-H226
[18] = test system: SK-MEL-28
[19] = test system: KM-20L2
[20] = test system: RXF 393

Measured: GI50

N#Cc1c(NC(=S)NC(=O)c2ccccc2)nc2c(c1-c1ccccc1)CCC2
inactive: [1] 91 µM | [2] > 100 µM | [3] > 100 µM | [4] > 100 µM | [5] > 100 µM | [6] > 100 µM | [7] > 100 µM | [8] > 100 µM | [9] 91.2 µM | [10] > 100 µM | [11] > 100 µM | [12] > 10 µM | [13] > 100 µM | [14] 58.1 µM

Cc1cc(C)c2c(O)cc(-c3ccc(F)cc3)nc2n1
inactive: [1] 95.1 µM | [15] 31.3 µM | [2] 33.1 µM | [16] 30.3 µM | [17] 35.6 µM | [5] 42.1 µM | [18] 37.3 µM | [7] 65.8 µM | [8] 66.1 µM | [10] 39.7 µM | [12] 30.7 µM | [14] 29.9 µM

CC(=O)OCC1=C(C(=O)O)C(c2ccc3c(c2)OCO3)c2cc3c(cc2O1)OCO3 (centres undefined)
inactive: [1] > 100 µM | [2] > 100 µM | [3] > 100 µM | [4] > 100 µM | [19] > 100 µM | [20] > 100 µM | [18] > 100 µM | [6] > 100 µM | [9] > 100 µM | [10] > 100 µM | [11] > 100 µM | [13] > 100 µM | [14] > 100 µM

Cc1ccc(C2C(C(=O)C(C)(C)C)N2S(=O)(=O)c2ccc(C)cc2)cc1 (centres undefined)
inactive: [1] 28.6 µM | [15] 19.1 µM | [16] 16.1 µM | [17] 21.3 µM | [4] 26.5 µM | [5] 30.5 µM | [20] 21 µM | [18] 28.1 µM | [6] 20.2 µM | [7] 17.7 µM | [8] 18.7 µM | [9] 41.6 µM | [11] 18.7 µM | [12] 23.8 µM

Cc1ccc(C(C)(C)C[P+](C)(c2ccccc2)c2ccccc2)cc1
inactive: [15] 9.73 µM | [2] 3.56 µM | [16] 3.4 µM | [17] 15.6 µM | [3] 14 µM | [4] 3.24 µM | [5] 16.9 µM | [19] 6.1 µM | [20] 27.5 µM | [18] 8.51 µM | [6] 11.6 µM | [9] 26.7 µM | [11] 6.56 µM | [12] 7.93 µM | [13] 1.75 µM | [14] 11 µM

COc1ccc(C[C@H](N)C(=O)N2C[C@@H](CO)C[C@@H](n3ccc(=O)[nH]c3=O)C2)cc1
inactive: [1] > 100 µM | [15] > 100 µM | [16] > 100 µM | [17] > 100 µM | [3] > 100 µM | [4] > 100 µM | [5] > 100 µM | [19] > 100 µM | [20] > 100 µM | [18] > 100 µM | [6] > 100 µM | [10] > 100 µM | [11] > 100 µM | [13] > 100 µM | [14] > 100 µM
